Patent publication US12269800B2, “Delivery of therapeutic alkaloid compounds” (priority 2021, dated 2025)
Like-named read-outs stand apart in the source and are kept apart here.

Legend:
[1] = format: physicochemical
Description: The hydrolysis kinetics was under a certain temperature and measured by LCMS at a certain time interval. The corresponding LCMS chromatograms were recorded and the conversions were calculated. The hydrolysis conditions and the data were summarized in below table. LCMS spectra were obtained using Agilent 1200G1956A or SHIMADZU LCMS-2020. Standard LCMS conditions were as follows (running time 1.55 minutes):
Acidic condition: Mobile Phase A: 0.0375% TFA in water (v/v). Mobile Phase B: 0.01875% TFA in acetonitrile (v/v); Column: Kinetex EVO C18 30*2.1 mm, 5 μm.
Basic condition: Mobile Phase A: 0.025% NH3—H2O in water (v/v). Mobile Phase B: Acetonitrile; Column: Kinetex EVO C18 2.1×30 mm, 5 μm.
Conversion (%)=peak area 1/(peak area 1+peak area 2)*100%, peak area 1 is the integration of hydrolyzed product, peak area 2 is the integration of starting material.

SERT = biological target: T1, SERT (Homo sapiens, UniProt P31645); assay: cell-based; conditions: stable 5HTT cells, 30 minutes at 37° C.
T1 construct: expressed in transfected cells
T1 sequence (P31645 whole entry, species assumed): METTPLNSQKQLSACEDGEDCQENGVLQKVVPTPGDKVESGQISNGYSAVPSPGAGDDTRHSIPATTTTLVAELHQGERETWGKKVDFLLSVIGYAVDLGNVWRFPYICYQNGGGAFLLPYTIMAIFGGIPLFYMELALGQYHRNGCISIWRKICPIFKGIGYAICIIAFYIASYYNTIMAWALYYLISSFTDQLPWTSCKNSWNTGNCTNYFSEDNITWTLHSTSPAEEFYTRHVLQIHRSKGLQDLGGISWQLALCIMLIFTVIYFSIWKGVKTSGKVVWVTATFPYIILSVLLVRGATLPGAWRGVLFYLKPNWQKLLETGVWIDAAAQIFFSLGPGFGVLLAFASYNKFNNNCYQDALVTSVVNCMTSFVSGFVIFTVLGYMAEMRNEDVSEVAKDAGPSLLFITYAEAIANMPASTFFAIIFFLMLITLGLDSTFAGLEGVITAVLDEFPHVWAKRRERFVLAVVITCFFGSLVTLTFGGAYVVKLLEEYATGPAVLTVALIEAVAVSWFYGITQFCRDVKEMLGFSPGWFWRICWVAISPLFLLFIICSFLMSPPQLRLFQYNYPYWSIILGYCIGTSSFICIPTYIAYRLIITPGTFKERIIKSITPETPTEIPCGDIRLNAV

[2] = in vivo; cited from earlier work
[3] = Description: General Procedure for intravenous pharmacokinetic study in mice: Male C57/BL6 mice were used to evaluate each compound, with n=3 mice/time point. Animals were administered through intravenous route with solution formulation at 2 mg/kg dose. […] Following blood collection, immediately, animals were sacrificed, and vena-cava was cut open and blood was drained. […] Brain samples were collected from set of three mice at each time point. […] Brain samples were homogenized using 2 volumes of ice-cold PBS (pH-7.4) of brain weight. […] Concentrations of compound (or compound and metabolite) in mouse plasma and brain samples were determined by fit for purpose LC-MS/MS method.
Remark: listed apart in the source
[4] = Pharmacokinetics of 043 and 001 in mice after oral 043 (75 mg/kg); format: in vivo, male C57BL/6 mice; conditions: analyte as labelled, single oral administration of 043, 75 mg/kg
Description: Total twelve male mice were used in this study. […] The formulation vehicle used was normal saline.
The plasma and brain concentration-time data of 043 and 001 was used for the pharmacokinetic analysis.
The extraction procedure for plasma/brain samples and the spiked plasma/brain calibration standards were identical:
A 25 μL of study sample plasma/brain (dilution applied to some samples) or spiked plasma calibration standard was added to individual pre-labeled micro-centrifuge tubes followed by 100 μL of internal standard prepared in acetonitrile (Glipizide-500 ng/mL) was added except for blank, where 100 μL of acetonitrile was added. Samples were vortexed for 5 minutes. Samples were centrifuged for 10 minutes at a speed of 4000 rpm at 4° C. Following centrifugation, 100 μL of clear supernatant was transferred in 96 well plates and analyzed using LC-MS/MS.

[5] = Plasma Stability Assay of Example A3, mouse plasma; conditions: % of prodrug compound remaining, 37° C., 0.0 min
[6] = Oral dose pharmacokinetic study in mice (10 mg/kg)
Description: Total thirty-five male mice were used for each study with n=5 mice/time point. Animals were administered through oral route with solution formulation at 10 mg/kg dose. The formulation vehicle used was normal saline. […] Brain samples were collected from set of five mice at 0.083, 0.25, 0.50, 1.0, 1.5, 2.0 and 3.0 h.
The plasma and brain concentration-time data of 001 was used for the pharmacokinetic analysis.

[7] = Plasma Stability Assay of Example A3, human plasma; conditions: % of prodrug compound remaining, 37° C., 0.0 min
[8] = Plasma Stability Assay of Example A4, human plasma; conditions: 37° C., % prodrug remaining
Description: (§1) 50 uL aliquots of positive controls and test compounds spiked into rat or human plasma (n=2) were added to a pre-warmed plate (37° C.) and shaken at 50 rpm. At each respective time point, the reaction was stopped by adding 500 μL of acetonitrile containing internal standards (100 nM aprozolam, 200 nM caffeine, 100 nM tolbutamide). All samples were vortexed for 10 minutes, followed by centrifugation at 3,220 g for 30 minutes to precipitate proteins. 100 μL of the supernatant is transferred to a new plate. The supernatant will be diluted with ultrapure water according to the LC-MS signal response and peak shape.

[9] = Hydrolysis Assay of Example A2, Condition 1 (SGF with pepsin, pH 1.5, 37° C.); format: physicochemical
[10] = Plasma Stability Assay of Example A4, rat plasma; conditions: 37° C., % prodrug remaining
Description: as §1

[11] = 2 mg/kg iv in rat
Description: Brain samples were homogenized with PBS (W/V, 1:3). Plasma/brain samples were mixed with acetonitrile containing internal standard. The samples were vortexed then centrifuged at 4 degrees Celsius for 15 minutes. The supernatant was diluted with water (1:2 V/V) and analyzed by LC/MS/MS for quantitative analysis. […] Area under the curve (AUC) was calculated and divided by dose to account for molecular weight difference of prodrug and metabolite (AUC/D).

[12] = format: physicochemical; conditions: DI water, 25° C., 0.5 mM
[13] = fermentation, exposure to light, exposure to heat, aqueous medium; cited from earlier work
[14] = 10 mg/kg po of the labelled compound in mice

COc1ccc([C@@]23CCC(=NO)C[C@@H]2N(C)CC3)cc1OC (mixture of isomers) [Compound 037]
conversion to mesembrine ([1]; acidic pH 2.0, 25 or 37° C.): converted to mesembrine
IC50 (SERT): < 50 nM

COc1ccc([C@@]23CCC(=O)C[C@@H]2N(C)CC3)cc1OC [(−) mesembrine]
half-life in plasma [2]: less than 2 hours

COc1ccc([C@@]23CCC(=O)C[C@@H]2N(C)CC3)cc1OC [Compound 001, mesembrine, reference compound]
Notes (stability in words) ([1]; PH = 7.4, 25° C., 0.5 mM, PBS (20 mM), 0-24 h): Stable
Notes (stability in words) ([1]; PH = 7.4, 40° C., 0.5 mM, PBS (20 mM), 0-24 h): Stable
hydrolysis ([1]; pH 2.0 in 0.01 M HCl to pH 7.4 in 20 mM PBS, 25° C. to 40° C.): did not further hydrolyze
Notes (stability in words) ([1]; pH = 2.0, 25° C., 0.5 mM, 0.01M HCl, 0-24 h): Stable
Notes (stability in words) ([1]; pH = 2.0, 40° C., 0.5 mM, 0.01M HCl, 0-24 h): Stable
001 quantifiable in brain up to ([3]; 2 mg/kg iv of the labelled compound in mice): 60 min
plasma levels of 001 ([3]; at 60, 120, 180 min, 2 mg/kg iv in mice): not detectable
brain levels of 001 ([3]; at 120, 180 min, 2 mg/kg iv in mice): not detectable
Human Plasma Prodrug (%): >99%
brain concentrations quantifiable up to [4]: 4 h
Kp ([4]; male, C57BL/6, mouse, brain, read-out: brain exposure-Kp): 2.55
Tmax ([4]; male, C57BL/6, mouse, plasma, read-out: Tmax): 30 min
Mouse Plasma Prodrug (%) [5]: 100.0%
001 quantifiable in brain up to [6, 14]: 60 min
001 quantifiable in plasma up to [6, 14]: 2 h
brain levels of 001 ([6]; at 90, 120, 180 min, 10 mg/kg po in mice): not detectable
plasma levels of 001 ([6]; at 180 min, 10 mg/kg po in mice): not detectable
bioavailability ([6]; male, C57BL/6, mouse, plasma, po, 10 mg/kg): < 10%
Human Plasma Prodrug (%) [7]: 100.0%

COc1ccc([C@@]23CCC(OC(C)=O)=C[C@@H]2N(C)CC3)cc1OC [Compound 026, [(3aS,7aS)-3a-(3,4-dimethoxyphenyl)-1-methyl-3,4,5,7a-tetrahydro-2H-indol-6-yl] acetate]
Conversion (%) [1]: 0%
Notes (stability in words) [1]: Stable;
Human Plasma Prodrug (%) ([8]; time 0.0 min): 100.0%
Human Plasma Prodrug (%) ([8]; time 10 min): 40.3%
Human Plasma Prodrug (%) ([8]; time 30 min): 23.5%
Human Plasma Prodrug (%) ([8]; time 60 min): 12.0%
Human Plasma Prodrug (%) ([8]; time 120 min): 3.4%
Human Plasma Prodrug (%) ([8]; time 240 min): 0.8%
Condition 1 Conversion (%) ([9]; pH 1.5): 0%
Rat Plasma Prodrug (%) ([10]; time 0.0 min): 100.0%
Rat Plasma Prodrug (%) ([10]; time 10 min): 0.0%
Rat Plasma Prodrug (%) ([10]; time 30 min): 0.0%
Rat Plasma Prodrug (%) ([10]; time 60 min): 0.0%
Rat Plasma Prodrug (%) ([10]; time 120 min): 0.0%
Rat Plasma Prodrug (%) ([10]; time 240 min): 0.0%

CCC(C)CC(=O)OC1=C[C@@H]2N(C)CC[C@]2(c2ccc(OC)c(OC)c2)CC1 (stereo partly drawn) [Compound 316, [(3aS,7aS)-3a-(3,4-dimethoxyphenyl)-1-methyl-3,4,5,7a-tetrahydro-2H-indol-6-yl]3-methyl pentanoate]
conversion to 001 in vivo [11]: converts to 001 in vivo
Condition 1 Conversion (%) ([9]; SGF with pepsin pH 1.5, 37° C., 0.5 mM, time 1 min): 0%
Condition 1 Conversion (%) ([9]; SGF with pepsin pH 1.5, 37° C., 0.5 mM, time 5 min): 0%
Condition 1 Conversion (%) ([9]; SGF with pepsin pH 1.5, 37° C., 0.5 mM, time 30 min): 0%
Condition 1 Conversion (%) ([9]; SGF with pepsin pH 1.5, 37° C., 0.5 mM, time 1 h): 0%
Condition 1 Conversion (%) ([9]; SGF with pepsin pH 1.5, 37° C., 0.5 mM, time 4 h): 0%
Condition 1 Conversion (%) ([9]; SGF with pepsin pH 1.5, 37° C., 0.5 mM, time 24 h): 0%
Condition 2 Conversion (%) ([12]; time 1 min): 0%
Condition 2 Conversion (%) ([12]; time 5 min): 0%
Condition 2 Conversion (%) ([12]; time 30 min): 0%
Condition 2 Conversion (%) ([12]; time 1 h): 0%
Condition 2 Conversion (%) ([12]; time 4 h): 0%
Condition 2 Conversion (%) ([12]; time 24 h): 0%

COc1ccc([C@@]23CCC(=O)C[C@@H]2N(C)CC3)cc1OC [mesembrine]
stability [13]: unstable
